# Measured values: US8329904B2, “Azacyclic derivatives” (Hoffmann-La Roche Inc., priority 2009, dated 2012)
# Biological target: T1, human HSL (Homo sapiens, UniProt Q05469)
# T1 construct: overlapping PCR to generate a full length human HSL ORF with a 3′-His6 tag; His6 (C); made in house; host or cells: High 5 insect cells (baculovirus, pFast-BAC)
# T1 sequence (Q05469 1-1076): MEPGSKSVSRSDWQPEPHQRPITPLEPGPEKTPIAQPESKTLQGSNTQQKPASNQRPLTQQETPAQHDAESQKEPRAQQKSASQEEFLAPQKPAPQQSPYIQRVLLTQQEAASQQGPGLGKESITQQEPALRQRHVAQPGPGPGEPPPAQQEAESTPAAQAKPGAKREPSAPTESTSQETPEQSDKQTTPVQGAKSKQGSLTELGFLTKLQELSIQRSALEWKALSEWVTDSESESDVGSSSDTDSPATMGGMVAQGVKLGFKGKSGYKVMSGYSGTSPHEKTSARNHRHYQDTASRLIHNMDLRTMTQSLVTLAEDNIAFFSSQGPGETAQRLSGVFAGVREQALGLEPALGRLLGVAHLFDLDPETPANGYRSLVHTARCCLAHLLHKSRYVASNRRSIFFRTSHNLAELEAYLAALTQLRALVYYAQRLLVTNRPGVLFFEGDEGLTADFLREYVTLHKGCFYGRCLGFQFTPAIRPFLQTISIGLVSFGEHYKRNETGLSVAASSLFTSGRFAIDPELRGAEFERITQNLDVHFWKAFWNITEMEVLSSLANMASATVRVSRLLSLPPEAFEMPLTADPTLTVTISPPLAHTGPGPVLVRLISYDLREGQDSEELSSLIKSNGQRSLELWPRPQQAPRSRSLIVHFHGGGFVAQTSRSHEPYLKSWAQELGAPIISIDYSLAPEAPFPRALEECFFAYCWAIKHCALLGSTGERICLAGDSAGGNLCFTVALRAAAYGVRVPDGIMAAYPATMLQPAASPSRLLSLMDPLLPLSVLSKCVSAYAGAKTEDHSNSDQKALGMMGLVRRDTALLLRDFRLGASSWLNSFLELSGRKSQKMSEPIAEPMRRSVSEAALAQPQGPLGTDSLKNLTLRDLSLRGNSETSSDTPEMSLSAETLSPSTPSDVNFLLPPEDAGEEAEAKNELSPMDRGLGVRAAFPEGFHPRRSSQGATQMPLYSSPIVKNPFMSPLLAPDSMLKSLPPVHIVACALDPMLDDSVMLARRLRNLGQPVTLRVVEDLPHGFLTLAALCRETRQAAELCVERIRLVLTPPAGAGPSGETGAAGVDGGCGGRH
# Assay: Human Hormone-Sensitive Lipase (HSL) Enzyme Inhibition Assay
# Type: biochemical
# Details: colorimetric assay, 2,3-dimercapto-1-propanol tributyrate (DMPT) substrate, 37° C. for 20 minutes, absorbance at 405 nm; read-out: HSL hum IC50
# Method in brief: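 Colorimetric thioester hydrolysis: compounds in DMSO series mixed with DMPT (1.5 mM) in MOPS pH 7.2 with BSA, then baculovirus-expressed His6-tagged full-length human HSL added, 37° C, 20 min. DTNB plus detergents added, 15 min room temperature, absorbance at 405 nm.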
row,SMILES,IC50 [µM]
1,"O=C1N(c2cc(C(F)(F)F)ccc2Cl)CCC12CCN(S(=O)(=O)c1ccccc1Cl)CC2 [Example 154, 8-(2-Chloro-benzenesulfonyl)-2-(2-chloro-5-trifluoromethyl-phenyl)-2,8-diaza-spiro[4.5]decan-1-one]",0.21
2,"CC(O)(c1ccc(N2CCC3(CCN(S(=O)(=O)c4ccccc4Cl)CC3)C2=O)cc1)C(F)(F)F (stereo not shown) [Example 155, 8-(2-Chloro-benzenesulfonyl)-2-[4-(2,2,2-trifluoro-1-hydroxy-1-methyl-ethyl)-phenyl]-2,8-diaza-spiro[4.5]decan-1-one]",0.02
3,"CCS(=O)(=O)c1ccc(N2CCC3(CCN(S(=O)(=O)c4ccccc4Cl)CC3)C2=O)cc1 [Example 156, 8-(2-Chloro-benzenesulfonyl)-2-(4-ethanesulfonyl-phenyl)-2,8-diaza-spiro[4.5]decan-1-one]",0.06
4,"O=C1N(c2ccc(C(O)(C(F)(F)F)C(F)(F)F)cc2)CCC12CCN(S(=O)(=O)c1ccccc1Cl)CC2 [Example 157, 8-(2-Chloro-benzenesulfonyl)-2-[4-(2,2,2-trifluoro-1-hydroxy-1-trifluoromethyl-ethyl)-phenyl]-2,8-diaza-spiro[4.5]decan-1-one]",0.04
5,"O=C1N(c2ccc(C(F)(F)F)cc2)CCCC12CCN(S(=O)(=O)c1ccccc1Cl)CC2 [Example 158, 9-(2-Chloro-benzenesulfonyl)-2-(4-trifluoromethyl-phenyl)-2,9-diaza-spiro[5.5]undecan-1-one]",0.12
6,"CCOCc1ccc(N2CCCC3(CCN(S(=O)(=O)c4ccccc4Cl)CC3)C2=O)cc1 [Example 159, 9-(2-Chloro-benzenesulfonyl)-2-(4-ethoxymethyl-phenyl)-2,9-diaza-spiro[5.5]undecan-1-one]",0.3
7,"CC(C)NC(=O)c1ccc(N2CCC3(CCN(S(=O)(=O)c4ccccc4Cl)CC3)C2=O)cc1 [Example 160, 4-[8-(2-Chloro-benzenesulfonyl)-1-oxo-2,8-diaza-spiro[4.5]dec-2-yl]-N-isopropyl-benzamide]",0.9
8,"CC(C)N(C)C(=O)c1ccc(N2CCC3(CCN(S(=O)(=O)c4ccccc4Cl)CC3)C2=O)cc1 [Example 161, 4-[8-(2-Chloro-benzenesulfonyl)-1-oxo-2,8-diaza-spiro[4.5]dec-2-yl]-N-isopropyl-N-methyl-benzamide]",0.38
9,"O=C1N(c2ccc(C(O)C(F)(F)F)cc2)CCC12CCN(S(=O)(=O)c1ccccc1OC(F)(F)F)CC2 (stereo not shown) [Example 163, 2-[4-(2,2,2-Trifluoro-1-hydroxy-ethyl)-phenyl]-8-(2-trifluoromethoxy-benzenesulfonyl)-2,8-diaza-spiro[4.5]decan-1-one]",0.02
10,"Cc1noc(C)c1S(=O)(=O)N1CCC2(CCN(c3ccc(C(F)(F)F)cc3)C2=O)CC1 [Example 164, 8-(3,5-Dimethyl-isoxazole-4-sulfonyl)-2-(4-trifluoromethyl-phenyl)-2,8-diaza-spiro[4.5]decan-1-one]",0.28
11,"CC(C)(C)CC(=O)N1CCC2(CC1)CCN(c1ccc(C(O)C(F)(F)F)cc1)C2=O (stereo not shown) [Example 165, 8-(3,3-Dimethyl-butyryl)-2-[4-(2,2,2-trifluoro-1-hydroxy-ethyl)-phenyl]-2,8-diaza-spiro[4.5]decan-1-one]",0.22
12,"O=C1N(c2ccc(C(O)C(F)(F)F)cc2)CCC12CCN(S(=O)(=O)c1ccccc1C(F)(F)F)CC2 (stereo not shown) [Example 166, 2-(4-(2,2,2-trifluoro-1-hydroxyethyl)phenyl)-8-(2-(trifluoromethyl)phenylsulfonyl)-2,8-diazaspiro[4.5]decan-1-one]",0.02
13,"CC(C)CS(=O)(=O)N1CCC2(CCN(c3ccc(C(O)C(F)(F)F)cc3)C2=O)CC1 (stereo not shown) [Example 167, 8-(isobutylsulfonyl)-2-(4-(2,2,2-trifluoro-1-hydroxyethyl)phenyl)-2,8-diazaspiro[4.5]decan-1-one]",0.07
14,"CC(C)CS(=O)(=O)N1CCC2(CCN(c3ccc(C(C)(O)C(F)(F)F)cc3)C2=O)CC1 (stereo not shown) [Example 168, 8-(isobutylsulfonyl)-2-(4-(1,1,1-trifluoro-2-hydroxypropan-2-yl)phenyl)-2,8-diazaspiro[4.5]decan-1-one]",0.13
15,"CC(O)(c1ccc(N2CCC3(CCN(S(=O)(=O)c4ccccc4C(F)(F)F)CC3)C2=O)cc1)C(F)(F)F (stereo not shown) [Example 169, 2-(4-(1,1,1-trifluoro-2-hydroxypropan-2-yl)phenyl)-8-(2-(trifluoromethyl)phenylsulfonyl)-2,8-diazaspiro[4.5]decan-1-one]",0.03
16,"O=C1N(c2ccc(C(O)C(F)(F)F)cc2)CCC12CCN(S(=O)(=O)C1CC1)CC2 (stereo not shown) [Example 170, 8-(Cyclopropylsulfonyl)-2-(4-(2,2,2-trifluoro-1-hydroxyethyl)phenyl)-2,8-diazaspiro[4.5]decan-1-one]",0.32
17,"CC(O)(c1ccc(N2CCC3(CCN(S(=O)(=O)C4CC4)CC3)C2=O)cc1)C(F)(F)F (stereo not shown) [Example 171, 8-(Cyclopropylsulfonyl)-2-(4-(1,1,1-trifluoro-2-hydroxypropan-2-yl)phenyl)-2,8-diazaspiro[4.5]decan-1-one]",0.55
18,"CCS(=O)(=O)c1ccc(N2CCC3(CCN(S(=O)(=O)CC(C)(C)C)CC3)C2=O)cc1 [Example 172, 8-(2,2-Dimethyl-propane-1-sulfonyl)-2-(4-ethanesulfonyl-phenyl)-2,8-diaza-spiro[4.5]decan-1-one]",0.77
19,"O=C1N(c2ccc(C(O)CF)cc2)CCC12CCN(S(=O)(=O)c1ccccc1C(F)(F)F)CC2 (stereo not shown) [Example 173, 2-(4-(2-fluoro-1-hydroxyethyl)phenyl)-8-(2-(trifluoromethyl)phenylsulfonyl)-2,8-diazaspiro[4.5]decan-1-one]",0.14
20,"CC(C)(O)c1ccc(N2CCC3(CCN(S(=O)(=O)c4ccccc4C(F)(F)F)CC3)C2=O)cc1 [Example 174, 2-[4-(1-Hydroxy-1-methyl-ethyl)-phenyl]-8-(2-trifluoromethyl-benzenesulfonyl)-2,8-diaza-spiro[4.5]decan-1-one]",0.06
21,"CC(C)(C)CC(=O)N1CCC2(CC1)CCN(c1ccc(C(O)C(C)(F)F)cc1)C2=O (stereo not shown) [Example 175, 2-(4-(2,2-difluoro-1-hydroxypropyl)phenyl)-8-(3,3-dimethylbutanoyl)-2,8-diazaspiro[4.5]decan-1-one]",0.75
22,"CC(C)CS(=O)(=O)N1CCC2(CCN(c3ccc(C(O)C(F)F)cc3)C2=O)CC1 (stereo not shown) [Example 177, 2-(4-(2,2-difluoro-1-hydroxyethyl)phenyl)-8-(isobutylsulfonyl)-2,8-diazaspiro[4.5]decan-1-one]",0.45
23,"CC(C)(C)CC(=O)N1CCC2(CC1)CCN(c1ccc(C(O)C(F)F)cc1)C2=O (stereo not shown) [Example 178, 2-(4-(2,2-difluoro-1-hydroxyethyl)phenyl)-8-(3,3-dimethylbutanoyl)-2,8-diazaspiro[4.5]decan-1-one]",0.64
24,"O=C1N(c2ccc(C(F)(F)F)cc2)CCC12CCN(S(=O)(=O)c1ccccc1Cl)CC2 [Example 179, 8-(2-Chloro-benzenesulfonyl)-2-(4-trifluoromethyl-phenyl)-2,8-diaza-spiro[4.5]decan-1-one]",0.04
25,"Cc1nn(C)c(C)c1S(=O)(=O)N1CCC2(CCN(c3ccc(OC(F)(F)F)cc3)C2=O)CC1 [Example 180, 2-(4-Trifluoromethoxy-phenyl)-8-(1,3,5-trimethyl-1H-pyrazole-4-sulfonyl)-2,8-diaza-spiro[4.5]decan-1-one]",0.06
26,"Cn1cnc(S(=O)(=O)N2CCC3(CCN(c4ccc(OC(F)(F)F)cc4)C3=O)CC2)c1 [Example 181, 8-(1-Methyl-1H-imidazole-4-sulfonyl)-2-(4-trifluoromethoxy-phenyl)-2,8-diaza-spiro[4.5]decan-1-one]",0.26
27,"O=C1N(c2ccc(OC(F)(F)F)cc2)CCC12CCN(S(=O)(=O)N1CCCC1)CC2 [Example 182, 8-(Pyrrolidine-1-sulfonyl)-2-(4-trifluoromethoxy-phenyl)-2,8-diaza-spiro[4.5]decan-1-one]",0.09
28,"Cn1nccc1S(=O)(=O)N1CCC2(CCN(c3ccc(OC(F)(F)F)cc3)C2=O)CC1 [Example 183, 8-(2-Methyl-2H-pyrazole-3-sulfonyl)-2-(4-trifluoromethoxy-phenyl)-2,8-diaza-spiro[4.5]decan-1-one]",0.04
